Assay results: publication PMC10990149 (Proceedings of the National Academy of Sciences of the …, 2024)

Target: T1, DvhD (DVU1020), cytoplasmic fragment (PAS and HD-GYP domains) (Nitratidesulfovibrio vulgaris, UniProt Q72DA9)
T1 sequence (Q72DA9 374-701): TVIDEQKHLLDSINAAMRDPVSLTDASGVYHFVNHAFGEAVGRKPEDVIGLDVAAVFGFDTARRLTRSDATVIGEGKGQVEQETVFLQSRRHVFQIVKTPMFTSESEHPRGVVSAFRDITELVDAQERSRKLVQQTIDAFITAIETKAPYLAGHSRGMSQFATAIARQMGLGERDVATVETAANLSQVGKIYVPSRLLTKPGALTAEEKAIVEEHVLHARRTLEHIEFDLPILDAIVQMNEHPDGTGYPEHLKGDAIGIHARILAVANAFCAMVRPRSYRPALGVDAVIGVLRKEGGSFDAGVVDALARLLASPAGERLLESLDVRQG
Test: isothermal titration calorimetry
Assay type: binding

- Kd: 322 ± 81 nM
Compound: Nc1nc2c(ncn2[C@@H]2O[C@@H]3CO[P@](=O)(O)O[C@H]4[C@@H](O)[C@H](n5cnc6c(=O)[nH]c(N)nc65)O[C@@H]4CO[P@](=O)(O)O[C@H]3[C@H]2O)c(=O)[nH]1 [c-di-GMP]
